Data from patent US20230084978A1, “OPTIMIZATION OF PEPTIDE-MELANIN BINDING” (ASSITANCE PUBLIQUE - HÔPITAUX DE PARIS, priority 2020, published 2023).

Tests used:
[1] = Binding of peptides to synthetic melanin (Tricine-SDS-PAGE analysis); conditions: for Percentage of peptide binding to melanin, Mel + peptide: L-Dopa polymerized 2 h at pH 8.5 and 60° C. before the peptide was added; for binding of the peptides to melanin (in words), SDS-page analysis: antigen added just after L-Dopa is polymerized in melanin; for Percentage of peptide binding to melanin, Peptide-Mel: peptide mixed with L-Dopa (1/4 gp100, 1/6 EphA2), then 2 hours at pH 8.5 and 60° C.
Description: The binding of the peptide to the melanin can be verified by Tricine-SDS-PAGE analysis as described in Carpentier; 2017 (op. cit.). Briefly, samples (peptide-Mel or peptide alone) are loaded on acrylamide gels. Following electrophoresis, the gels are stained with Coomassie Brilliant Blue R-250, allowing the quantification of the free peptide in the gel. The binding of peptides to melanin can be expressed as the ratio: [amount of unbound peptide in samples Peptide-Mel/amount of peptides in control samples containing peptides alone.
Peptides were mixed with L-Dopa (weight ratio peptide/L-Dopa=1/4 and 1/6 for gp100 and EphA2, respectively) then incubated for 2 hours at pH 8.5 and 60° C. under agitation to ensure oxygenation of the solution to generate nanoparticles of melanin-bound peptides (Peptide-Mel). Alternatively, L-Dopa alone (0.8 mg/ml) was polymerized into melanin for 2 h at pH 8.5 and 60° C. under agitation, before the peptides (weight ratio peptide/L-Dopa=1/4 and 1/6 for gp100 and EphA2, respectively) were added to the solution (Mel+peptide). Tricine-SDS-PAGE analysis was performed as described in Carpentier; 2017 (op. cit.). Briefly, samples (peptide-Mel or peptide alone) were loaded on acrylamide gels. Following electrophoresis, the gels were stained with Coomassie Brilliant Blue R-250 and imaged with the ChemiDoc XRS+ system (Bio-Rad Laboratory), allowing the quantification of the free peptide in the gel. The binding of peptides to melanin was expressed as the ratio: [amount of unbound peptide in samples Peptide-Mel/amount of peptides in control samples containing peptides alone]
First column (Peptide-Mel): L-Dopa (0.8 mg/ml) was mixed with peptides (weight ratio peptide/L-Dopa=1/4) then incubated for 2 hours at pH 8.5 and 60° C. to generate nanoparticles of melanin-bound peptides. Alternatively (second column; Mel+peptide), L-Dopa alone (0.8 mg/ml) was first polymerized into melanin for 2 h at pH 8.5 and 60° C. under vigorous agitation, before the peptides (weight ratio peptide/L-Dopa=1/4) were added to the solution and incubated for 2 hours at room temperature. In both cases, the percentage of peptides that bound to melanin was then quantified with SPS-page analysis, as described in table 1. (ND=not done)
L-Dopa (0.8 mg/ml) underwent an oxidative polymerization at pH 8.5 in aerobic conditions for 2 hours at 60° C. The reaction mixture was then filtered on a 10 kDa filter, and the retentate containing the synthetic melanin was resuspended at pH 7.5 in phosphate buffer. Peptides were then added (at the weight ratio peptide/L-Dopa=1/4) and the mixture was incubated for various periods of time and or pH. The percentage of peptides that bound to melanin was then quantified with SPS-page analysis, as described in table 1. (ND=not done).
L-Dopa (0.8 mg/ml) underwent an oxidative polymerization at pH 8.5 and 60° C. for 2 hours. The reaction mixture was then filtered on a 10 kDa filter, and the retentate containing the synthetic melanin was resuspended at pH 7.5 in phosphate buffer. Peptides were then added (at the weight ratio peptide/L-Dopa=1/4) and the mixture was incubated for various periods of time. Binding of the peptides was then quantified with SPS-page analysis, as described in table 1. (ND=not done)

C57BL/6 mice = test: CTL response (IFNg-SFCs of re-stimulated splenocytes) after subcutaneous immunization; type: in vivo; conditions: antigen added just after polymerization (Mel+peptide) + CpG-28, subcutaneous, 10 μg/mouse, day 8
Procedure: FIG. 1: CTL response after subcutaneous immunizations in 5-weeks old, C57BL/6, mice. Peptides (10 μg/mouse) were mixed with L-Dopa (weight ratio peptide/L-Dopa=1/4 and 1/6 for gp100 and EphA2 respectively) and incubated under the above described conditions (see table 1). Phosphorothioate oligonucleotide CpG-28 (5′-[…], SEQ ID NO: 21), were added to vaccine formulations (10 μg/mouse) just before the immunizations. Mice were then immunized sub-cutaneously with gp100-Mel+CpG (“gp100-Mel”), or with previously synthesized melanin mixed with gp100 and CpG (“Mel+gp100”); EphA2-Mel+CpG (“EphA2-Mel”), melanin+EphA2+CpG (“Mel+EphA2”). Mice were sacrificed on day 8 and the CTL response was performed as described in Carpentier; 2017. Briefly, splenocytes were re-stimulated in vitro with the corresponding MHC class 1-epitope (non-conjugated to melanin) and the numbers of IFNg-SFCs (Spot forming cells) were measured and expressed as Mean+/−S.E.M. (n=8 mice/group with pooled data from 2 different experiments of 4 mice each. Student-T test: gp100-Mel vs Mel+gp100: p<0.001; EphA2-Mel vs Mel+EphA2: p<0.001)
FIG. 2: CTL response after subcutaneous immunizations in C57BL/6 mice. […]

Sequence	Percentage of peptide binding to melanin, Mel + peptide [1]	binding of the peptides to melanin (in words), SDS-page analysis [1]	Percentage of peptide binding to melanin, Peptide-Mel [1]	ability of the vaccine formulation to trigger a CTL (CD8) response (C57BL/6 mice)	Binding of peptides on synthetic melanin, Mel + peptide 10 minutes ([1]; filtered preformed melanin at pH 7.5, peptide/L-Dopa 1/4, 10 minutes) [%]	Binding of peptides on synthetic melanin, Mel + peptide 2 hours ([1]; filtered preformed melanin at pH 7.5, peptide/L-Dopa 1/4, 2 hours) [%]	Binding of peptides on synthetic melanin, Mel + peptide 18 hours ([1]; filtered preformed melanin at pH 7.5, peptide/L-Dopa 1/4, 18 hours) [%]
FSHHNIIRL (EphA2 peptide) [SEQ ID NO: 2, reference compound]	9 +/− 6%	minimal binding	93 +/− 12%	lost			
KVPRNQDWL (gp100 peptide) [SEQ ID NO: 1, reference compound]	23 +/− 8%	minimal binding	100 +/− 0%	lost	6	22	89
